Laboratory results from PubChem BioAssay AID485351 (Sanford-Burnham Center for Chemical Genomics, 2010).
Where “and” joins values, the source holds several entries; their conditions need not be identical. Identical values can stand only once. Calls of active or inactive are those of the source. The rule behind the calls is not given here.

Target: Ubiquitin-conjugating enzyme E2 N (Homo sapiens) (UniProt P61088)
Assay: Ubc13/Uev1a ubiquitination inhibitors, SAR follow-up, biochemical, TR-FRET, set 2 (AID 485351)
Settings: in vitro Ubc13-Uev1a ubiquitination

Chain of Ubiquitin-conjugating enzyme E2 N (Homo sapiens) (P61088 whole entry, looked up): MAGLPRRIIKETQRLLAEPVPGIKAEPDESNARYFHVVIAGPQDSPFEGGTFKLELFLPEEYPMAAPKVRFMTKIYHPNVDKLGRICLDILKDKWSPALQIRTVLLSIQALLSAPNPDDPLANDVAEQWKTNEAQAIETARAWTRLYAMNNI

| Structure (SMILES) | IC50 |
| --- | --- |
| CCCCn1c(NC(=O)c2ccco2)c(S(=O)(=O)c2ccc(C)cc2)c2nc3ccccc3nc21 | 0.809 µM |
| COC(=O)C1=C(C(=O)OC)C2([C@@H](C)Nc3ccccc3)C=CC1O2 (some centres undefined) | > 100 µM (inactive) |
| CCCN1C(=O)C(NC(C)=O)c2cc(OC)ccc21 (centres undefined) | > 100 µM (inactive) |
| CC(=O)NC1C(=O)N(CCN2CCOCC2)c2ccc(C)cc21 (centres undefined) | > 100 µM (inactive) |
| COC(=O)C1=C(C(=O)OC)C2([C@H](Cc3ccccc3)Nc3ccc(Cl)cc3)C=CC1O2 (some centres undefined) | > 100 µM (inactive) |
| C=CC[C@@H](N(Cc1ccccc1)/C(=C\C(=O)OC)C(=O)OC)C12C=CC(O1)C(C(=O)OC)=C2C(=O)OC (some centres undefined) | > 100 µM (inactive) |
| CCCCn1c(NC(=O)c2cccc(Cl)c2)c(C#N)c2nc3ccccc3nc21 | 1.34 µM |
| COc1cc(/C=C2\C(=O)N(c3ccccc3)N=C2C)ccc1OC(=O)c1cccs1 | > 100 µM (inactive) |
| CCCCn1c(NC(=O)c2ccccc2)c(C#N)c2nc3ccccc3nc21 | 1.2 µM and 1 µM |
| C=CCC(Nc1ccccc1)C12C=CC(O1)C(C(=O)OC)=C2C(=O)OC (centres undefined) | > 100 µM (inactive) |
| COc1ccc2c(c1)C(=O)C(=O)N2CCN1CCOCC1 | > 100 µM (inactive) |
| C=CC[C@H](N(Cc1ccccc1)/C(=C\C(=O)OC)C(=O)OC)C12C=CC(O1)C(C(=O)OC)=C2C(=O)OC (some centres undefined) | > 100 µM (inactive) |
| CCCCn1c(NC(=O)c2ccc(OC)cc2)c(S(=O)(=O)c2ccc(C)cc2)c2nc3ccccc3nc21 | 0.752 µM |
| CCCCn1c(NC(=O)c2ccccc2Cl)c(S(=O)(=O)c2ccccc2)c2nc3ccccc3nc21 | 1.68 µM |
| CCCCn1c(NC(=O)c2ccc(Cl)cc2)c(C#N)c2nc3ccccc3nc21 | 0.859 µM |
| CCCCn1c(NC(C)=O)c(C#N)c2nc3ccccc3nc21 | 0.669 µM |
| CCCC1=NN(c2ccccc2)C(=O)/C1=C/c1ccc(OCc2ccc(C(=O)OC)cc2)cc1 | > 100 µM (inactive) |
| COC(=O)C1=C(C(=O)OC)C2([C@H](C)Nc3ccc(Cl)cc3)C=CC1O2 (some centres undefined) | 53 µM |
| CCC[C@@H](Nc1ccccc1)C12C=CC(O1)C(C(=O)OC)=C2C(=O)OC (some centres undefined) | > 100 µM (inactive) |
| CCCCn1c(NC(=O)c2ccco2)c(C#N)c2nc3ccccc3nc21 | 0.777 µM |
| COC(=O)C1=C(C(=O)OC)C2([C@@H](Cc3ccc(OC)cc3)Nc3ccccc3)C=CC1O2 (some centres undefined) | > 100 µM (inactive) |
| COc1ccc2c(c1)C(NC(C)=O)C(=O)N2CCOc1ccccc1 (centres undefined) | > 100 µM (inactive) |
| N#Cc1c(NC(=O)c2ccccc2Cl)n(Cc2ccccc2)c2nc3ccccc3nc12 | 2.78 µM |
| CCCCn1c(NC(=O)c2ccc(F)cc2)c(S(=O)(=O)c2ccc(C)cc2)c2nc3ccccc3nc21 | 1.32 µM |
| COC(=O)C1=C(C(=O)OC)C2(C(Cc3ccc(F)cc3)Nc3ccccc3)C=CC1O2 (centres undefined) | > 100 µM (inactive) |
| CCCCCn1c(NC(=O)c2ccco2)c(C(=O)OCC)c2nc3ccccc3nc21 | 0.501 µM |
| CCCCn1c(NC(=O)C2CCCCC2)c(C#N)c2nc3ccccc3nc21 | 0.499 µM |

| Structure (SMILES) | IC50 |
| --- | --- |
| C=C[C@@H](Nc1ccccc1)C12C=CC(O1)C(C(=O)OC)=C2C(=O)OC (some centres undefined) | > 100 µM (inactive) |
| CCCC1=NN(c2ccccc2)C(=O)/C1=C\c1ccc(O)cc1 | > 100 µM (inactive) |
| Cc1cc(C)c2c(c1)C(=O)C(=O)N2CCN1CCOCC1 | > 100 µM (inactive) |
| CCCCn1c(NC(=O)c2ccccc2Cl)c(C#N)c2nc3ccccc3nc21 | 0.697 µM and 1.01 µM |
| CCCCn1c(N)c(S(=O)(=O)c2ccc(C)cc2)c2nc3ccccc3nc21 | 2.08 µM and 0.875 µM |
| COc1ccc2c(c1)C(NC(C)=O)C(=O)N2CC1COc2ccccc2O1 (centres undefined) | > 100 µM (inactive) |
| COc1cc(/C=C2\C(=O)N(c3ccccc3)N=C2C)ccc1O | > 100 µM (inactive) |
| C=CC[C@H](Nc1ccccc1)C12C=CC(O1)C(C(=O)OC)=C2C(=O)OC (some centres undefined) | > 100 µM (inactive) |
| CCC(=O)Nc1c(S(=O)(=O)c2ccccc2)c2nc3ccccc3nc2n1Cc1ccccc1 | 0.755 µM |
| CCCC1=NN(c2ccc(C(=O)O)cc2)C(=O)/C1=C/c1ccc(OCc2ccccc2)c(OC)c1 | > 100 µM (inactive) |
| C=CC[C@@H](Nc1ccc(Cl)cc1)C12C=CC(O1)C(C(=O)OC)=C2C(=O)OC (some centres undefined) | > 100 µM (inactive) |
| CCC[C@H](Nc1ccccc1)C12C=CC(O1)C(C(=O)OC)=C2C(=O)OC (some centres undefined) | > 100 µM (inactive) |
| C=CC[C@@H](Nc1ccc(OC)cc1)C12C=CC(O1)C(C(=O)OC)=C2C(=O)OC (some centres undefined) | 78.9 µM |
| COC(=O)C1=C(C(=O)OC)C2([C@H](Cc3ccccc3)Nc3ccc(C)cc3)C=CC1O2 (some centres undefined) | > 100 µM (inactive) |
| COC(=O)C1=C(C(=O)OC)C2([C@H](C)Nc3ccccc3)C=CC1O2 (some centres undefined) | 80.2 µM |
| COC(=O)C1=C(C(=O)OC)C2([C@@H](C)Nc3ccc(Cl)cc3)C=CC1O2 (some centres undefined) | > 100 µM (inactive) |
| COC(=O)C1=C(C(=O)OC)C2([C@@H](Cc3ccccc3)Nc3ccc(Cl)cc3)C=CC1O2 (some centres undefined) | > 100 µM (inactive) |
| CCCC1=NN(c2ccc(C(=O)O)cc2)C(=O)/C1=C/c1ccc(O)cc1 | > 100 µM (inactive) |
| COc1cc(/C=C2\C(=O)N(c3ccccc3)N=C2C)ccc1OCc1ccccc1 | > 100 µM (inactive) |
| COC(=O)C1=C(C(=O)OC)C2([C@@H](C)Nc3ccc(C)cc3)C=CC1O2 (some centres undefined) | > 100 µM (inactive) |
| C=CC[C@H](Nc1ccc(C)cc1)C12C=CC(O1)C(C(=O)OC)=C2C(=O)OC (some centres undefined) | > 100 µM (inactive) |
| CCCC1=NN(c2ccc(C(=O)O)cc2)C(=O)/C1=C/c1ccc(OCc2ccccc2)cc1 | > 100 µM (inactive) |
| CCCCn1c(NS(=O)(=O)c2ccccc2)c(S(=O)(=O)c2ccc(C)cc2)c2nc3ccccc3nc21 | 0.741 µM |
| C=CC[C@H](Nc1ccc(Cl)cc1)C12C=CC(O1)C(C(=O)OC)=C2C(=O)OC (some centres undefined) | > 100 µM (inactive) |
| COC(=O)C1=C(C(=O)OC)C2([C@H](Cc3ccccc3)Nc3ccc(OC)cc3)C=CC1O2 (some centres undefined) | > 100 µM (inactive) |
| COCCn1c(NC(=O)c2ccc(Cl)cc2)c(S(=O)(=O)c2ccc(C)cc2)c2nc3ccccc3nc21 | 1.74 µM |
| c1ccc(CC(Nc2ccccc2)c2ccco2)cc1 (centres undefined) | > 100 µM (inactive) |

| Structure (SMILES) | IC50 |
| --- | --- |
| CCCCn1c(NC(=O)c2ccc(F)cc2)c(C#N)c2nc3ccccc3nc21 | 1.16 µM |
| COC(=O)C1=C(C(=O)OC)C2([C@@H](Cc3ccccc3)Nc3ccc(OC)cc3)C=CC1O2 (some centres undefined) | > 100 µM (inactive) |
| COC(=O)C1=C(C(=O)OC)C2([C@@H](C)Nc3ccc(OC)cc3)C=CC1O2 (some centres undefined) | > 100 µM (inactive) |
| CCCCNC(=O)c1c(NC(=O)c2ccccc2)n(Cc2ccccc2)c2nc3ccccc3nc12 | 18.8 µM |
| C=CC[C@@H](Nc1ccc(C)cc1)C12C=CC(O1)C(C(=O)OC)=C2C(=O)OC (some centres undefined) | > 100 µM (inactive) |
| CCCCn1c(NC(=O)c2ccccc2)c(S(=O)(=O)c2ccc(C)cc2)c2nc3ccccc3nc21 | 1.95 µM and 1.1 µM |
| COC(=O)[C@@H]1C2CCC([C@@H](Cc3ccccc3)Nc3ccccc3)(O2)[C@@H]1C(=O)OC (some centres undefined) | > 100 µM (inactive) |
| C=CCn1c(NS(=O)(=O)c2ccccc2)c(S(=O)(=O)c2ccc(C)cc2)c2nc3ccccc3nc21 | 0.769 µM |
| C=CC[C@H](Nc1ccc(OC)cc1)C12C=CC(O1)C(C(=O)OC)=C2C(=O)OC (some centres undefined) | > 100 µM (inactive) |
| COc1ccc(CN2C(=O)C(NC(C)=O)c3ccccc32)cc1 (centres undefined) | > 100 µM (inactive) |
| COC(=O)C1=C(C(=O)OC)C2([C@@H](Cc3ccccc3)Nc3ccc(C)cc3)C=CC1O2 (some centres undefined) | > 100 µM (inactive) |
| COC(=O)C=C(NC(CO)(CO)CO)C(=O)OC | 87.2 µM |
| N#Cc1c(NC(=O)c2ccccc2Cl)n(C2CCCCC2)c2nc3ccccc3nc12 | 2.84 µM |
| COC(=O)C1=C(C(=O)O)C2C=CC1([C@@H](Cc1ccccc1)Nc1ccccc1)O2 (some centres undefined) | > 100 µM (inactive) |
| C=CCn1c(NC(=O)c2ccccc2Cl)c(C#N)c2nc3ccccc3nc21 | 1.11 µM |
| COC(=O)C1=C(C(=O)OC)C2([C@H](Cc3ccc(C)cc3)Nc3ccccc3)C=CC1O2 (some centres undefined) | > 100 µM (inactive) |
| C=CC[C@@H](Nc1ccccc1)C12C=CC(O1)C(C(=O)OC)=C2C(=O)OC (some centres undefined) | > 100 µM (inactive) |
| CCCCn1c(NC(=O)CC)c(S(=O)(=O)c2ccc(C)cc2)c2nc3ccccc3nc21 | 0.742 µM |
| COc1ccc2c(c1)C(NC(C)=O)C(=O)N2CCc1ccccc1 (centres undefined) | > 100 µM (inactive) |
| C=C[C@H](Nc1ccccc1)C12C=CC(O1)C(C(=O)OC)=C2C(=O)OC (some centres undefined) | 51.5 µM |
| COC(=O)C1=C(C(=O)OC)C2([C@H](Cc3ccccc3)Nc3ccccc3)C=CC1O2 (some centres undefined) | > 100 µM (inactive) |
| Nc1c(C(=O)NCc2ccco2)c2nc3ccccc3nc2n1Cc1ccccc1 | 0.815 µM |
| COC(=O)C1=C(C(=O)OC)C2([C@@H](Cc3ccccc3)Nc3ccccc3)C=CC1O2 (some centres undefined) | > 100 µM (inactive) |
| COC(=O)C1=C(C(=O)OC)C2([C@@H](Cc3ccc(C)cc3)Nc3ccccc3)C=CC1O2 (some centres undefined) | > 100 µM (inactive) |
| COCCNC(=O)c1c(NC(=O)c2ccccc2)n(Cc2ccccc2)c2nc3ccccc3nc12 | 0.656 µM |
